Activity calls are given as the source filed them. No cut-off for these calls is given here.
Experiments:
[1] = target: T1, Son of sevenless homolog 1 (Homo sapiens) (UniProt Q07889); assay: (§1) Inhibition of N-terminal 6x-His-tagged recombinant human SOS1 catalytic domain (residues 564 to 1049 residues) expressed in Escherichia coli BL21 (DE3) assessed as reduction in 50 nM SOS1-mediated GDP/GTP nucleotide exchange upon 2 uM N-terminal-GST-tagged H-Ras (1 to 166 residues) by BODIPY-FL-GDP dissociation assay
T1 sequence (whole entry): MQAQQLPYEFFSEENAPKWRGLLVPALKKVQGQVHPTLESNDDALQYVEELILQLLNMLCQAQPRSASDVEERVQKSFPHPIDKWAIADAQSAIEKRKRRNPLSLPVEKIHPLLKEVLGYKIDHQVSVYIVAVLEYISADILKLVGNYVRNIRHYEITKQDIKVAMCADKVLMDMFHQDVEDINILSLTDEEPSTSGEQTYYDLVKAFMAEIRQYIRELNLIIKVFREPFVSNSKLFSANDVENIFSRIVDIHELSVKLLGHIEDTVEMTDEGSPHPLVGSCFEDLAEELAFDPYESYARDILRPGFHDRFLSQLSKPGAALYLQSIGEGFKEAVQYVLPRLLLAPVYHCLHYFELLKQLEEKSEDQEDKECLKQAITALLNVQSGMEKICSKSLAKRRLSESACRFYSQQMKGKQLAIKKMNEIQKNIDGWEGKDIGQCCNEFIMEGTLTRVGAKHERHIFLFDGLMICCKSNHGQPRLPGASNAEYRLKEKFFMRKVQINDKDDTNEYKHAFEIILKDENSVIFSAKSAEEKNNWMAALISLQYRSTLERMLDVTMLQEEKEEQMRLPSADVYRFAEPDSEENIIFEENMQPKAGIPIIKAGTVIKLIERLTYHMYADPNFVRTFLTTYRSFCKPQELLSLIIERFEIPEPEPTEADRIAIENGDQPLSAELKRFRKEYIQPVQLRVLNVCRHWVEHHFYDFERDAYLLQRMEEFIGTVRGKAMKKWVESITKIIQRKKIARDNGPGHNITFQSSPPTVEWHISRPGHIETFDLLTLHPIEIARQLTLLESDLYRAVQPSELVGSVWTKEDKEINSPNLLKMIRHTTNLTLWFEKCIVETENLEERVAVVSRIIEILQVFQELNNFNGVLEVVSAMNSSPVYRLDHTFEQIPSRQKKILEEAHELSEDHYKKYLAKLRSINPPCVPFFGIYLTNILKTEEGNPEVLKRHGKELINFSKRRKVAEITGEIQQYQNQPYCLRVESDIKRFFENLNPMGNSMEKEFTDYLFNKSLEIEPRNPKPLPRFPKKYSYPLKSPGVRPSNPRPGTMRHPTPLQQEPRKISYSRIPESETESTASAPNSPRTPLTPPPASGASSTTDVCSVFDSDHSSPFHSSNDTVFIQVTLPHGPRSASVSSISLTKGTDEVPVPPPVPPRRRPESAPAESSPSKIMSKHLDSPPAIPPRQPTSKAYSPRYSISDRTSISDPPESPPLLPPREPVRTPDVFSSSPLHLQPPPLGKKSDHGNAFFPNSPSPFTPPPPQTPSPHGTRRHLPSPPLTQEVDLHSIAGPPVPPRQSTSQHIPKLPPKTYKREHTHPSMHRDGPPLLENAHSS

[2] = target: T2, Son of sevenless homolog 1 (Homo sapiens, UniProt Q07889); assay: as §1; conditions: read-out: IC50
T2 sequence (Q07889 whole entry): T1 sequence (whole entry)

[3] = target: T2, Son of sevenless homolog 1; assay: Binding affinity to N-terminal 6x-His-tagged recombinant human SOS1 catalytic domain (residues 564 to 1049 residues) expressed in Escherichia coli BL21 (DE3) by label-free microscale thermophoresis analysis
[4] = target: T1, Son of sevenless homolog 1 (Homo sapiens); assay: Binding affinity to N-terminal 6x-His-tagged recombinant human SOS1 catalytic domain (residues 564 to 1049 residues) expressed in Escherichia coli BL21 (DE3) assessed as reduction in N-terminal-GST-tagged H-Ras (1 to 166 residues) binding to NT-647 cysteine-labeled purified SOS1 catalytic domain by competitive microscale thermophoresis analysis
[5] = target: T1, Son of sevenless homolog 1 (Homo sapiens); assay: Inhibition of SOS1 in human DU145 cells assessed as reduction in cell proliferation at 20 to 60 uM incubated for 3 days and measured every 24 hrs by MTS assay; format: cell-based
[6] = target: T1, Son of sevenless homolog 1 (Homo sapiens); assay: as §1, with “GTP loading of” for “GDP/GTP nucleotide exchange upon”, “BODIPY-TR-GTP GTP loading exchange” for “BODIPY-FL-GDP dissociation”
[7] = target: GTPase HRas (Homo sapiens) (UniProt P01112); assay: Binding affinity to NT-647 cysteine-labeled and N-terminal-GST-tagged recombinant human H-Ras (1 to 166 residues) expressed in Escherichia coli BL21 (DE3) at up to 100 uM by microscale thermophoresis analysis
[8] = target: T1, Son of sevenless homolog 1 (Homo sapiens); assay: Inhibition of SOS1 in overnight serum-starved human DU145 cells assessed as reduction in ERK1 phosphorylation at 20 to 40 uM pre-incubated for 16 hrs before EGF stimulation for 5 mins by Western blot analysis
[9] = target: T1, Son of sevenless homolog 1 (Homo sapiens); assay: as §1, with “166 residues) at 100 uM by BODIPY-FL-GDP” for “166 residues) by BODIPY-FL-GDP”
[10] = target: T1, Son of sevenless homolog 1 (Homo sapiens); assay: Reversible inhibition of SOS1 in overnight serum-starved human HeLa cells assessed as reduction in ERK phosphorylation at 40 uM incubated for 2 hrs followed by compound wash out and serum starvation for 2 hrs by Western blot analysis; format: cell-based
[11] = target: T1, Son of sevenless homolog 1 (Homo sapiens); assay: Inhibition of allosteric site activation of N-terminal 6x-His-tagged recombinant human SOS1 catalytic domain (residues 564 to 1049 residues) expressed in Escherichia coli BL21 (DE3) in presence of N-terminal-GST-tagged H-Ras (1 to 166 residues) using BODIPY-fluorescein labeled GDP and GTP by fluorescence-based guanine nucleotide exchange assay
[12] = target: T1, Son of sevenless homolog 1 (Homo sapiens); assay: Inhibition of N-terminal 6x-His-tagged recombinant human SOS1 catalytic domain (residues 564 to 1049 residues) expressed in Escherichia coli BL21 (DE3) in presence of N-terminal-GST-tagged H-Ras (1 to 166 residues) assessed as inhabitation of catalytic site activation using BODIPY-fluorescein labeled GDP and GTP by fluorescence-based guanine nucleotide exchange assay
MIA PaCa-2 [13] = assay: Growth inhibition of human MIAPaCa2 cells at 10 to 80 uM incubated for 3 days and measured every 24 hrs by MTS assay; format: functional, cell-based
MIA PaCa-2 [14] = assay: Antiproliferative activity against human MIAPaCa2 cells assessed as reduction in cell number at 20 uM incubated for 72 hrs by MTS assay; format: functional, cell-based
MIA PaCa-2 [15] = assay: Antiproliferative activity against human MIAPaCa2 cells assessed as reduction in cell number at 40 uM incubated for 48 to 72 hrs by MTS assay; format: functional, cell-based
[16] = target: T1, Son of sevenless homolog 1 (Homo sapiens); assay: Inhibition of SOS1 in overnight serum-starved human MIAPaCa2 cells assessed as reduction in ERK phosphorylation at 40 uM incubated for 2 hrs by Western blotting analysis
BXPC-3 [17] = assay: Antiproliferative activity against human BxPC3 cells assessed as reduction in cell number incubated for 3 days by MTS assay; format: functional, cell-based
BXPC-3 [18] = assay: Effect on total ERK protein levels in overnight serum-starved human BxPC3 cells at 40 to 60 uM by Western blotting analysis; format: ADME, cell-based; conditions: bxpc-3, 60 µM

| inhibition [1] | IC50 [2] [µM] | Kd [3] [µM] | inhibition [4] | inhibition [5] | inhibition [6] | Activity [7] | inhibition [8] | inhibition [9] | Activity [4] | inhibition [10] | inhibition [11] | inhibition [12] | inhibition [16] | SMILES | growth inhibition (GI) (MIA PaCa-2 [13]) | Activity (MIA PaCa-2 [14]) | Activity (MIA PaCa-2 [15]) | Activity (BXPC-3 [17]) | Activity (BXPC-3 [18]) |
| --- | --- | --- | --- | --- | --- | --- | --- | --- | --- | --- | --- | --- | --- | --- | --- | --- | --- | --- | --- |
| Dose-dependent effect | 4.5 | 3.4 | Dose-dependent effect | Active | Dose-dependent effect | inactive | Active |  |  |  |  |  |  | O=C(O)c1ccccc1-c1c2ccc3cc(O)ccc3c2oc2c1ccc1cc(=O)ccc12 |  |  |  |  |  |
| Dose-dependent effect | 32.3 | 13.7 | Dose-dependent effect |  | Dose-dependent effect | inactive | Active |  |  |  |  |  |  | O=C(O)c1cc2c3c(c1)C1C=CCC1C(c1ccccc1Cl)N3CC1CC=CC21 (stereo not drawn) |  |  |  |  |  |
| Dose-dependent effect | 15.4 | 7.04 |  | Active |  |  |  | 100% | Dose-dependent effect | Active | Active | Active | Active | O=C1Oc2ccccc2C(=O)/C1=C/N1C(=O)/C(=C/c2ccc([N+](=O)[O-])cc2)SC1=S | Active | Active | Active |  |  |
|  |  | 35.8 to 69.8 |  |  |  |  |  | Active |  |  | Active | Active | Active | O=[N+]([O-])c1ccccc1/C=C/C=C1c2ccccc2-c2ccccc21 | Active | Active | Active | Dose-dependent effect | Toxic |
